As usually defined, the Papp A→B is the apparent permeability from the apical to the basolateral side of a cell layer. The efflux ratio is a quotient of directional permeabilities that is used to spot active efflux. As usually defined, the Papp B→A is the apparent permeability from the basolateral to the apical side of a cell layer. The pIC50 is the negative decadic logarithm of the IC50, by convention in mol/L. What is called IC70 is the concentration needed for an effect of 70%. A word on the AC50: it is the concentration at which the activity in the assay is half-maximal. What is called microsomal CLint is a measure of how fast metabolising enzymes remove a compound, apart from limits set by blood flow. A low value points to slow turnover. Broadly, the half-life is the time needed for the level to fall by half in the phase considered.

This note sets out measurements from ChEMBL document CHEMBL4477199, “Design and synthesis of novel bicalutamide and enzalutamide derivatives as antiproliferative agents for the treatment of prostate cancer” (Eur J Med Chem, 2016).

pIC50: −log10 of the molar value.

A short description of series [1]: Apparent permeability from apical to basolateral side in human Caco2 cells at 10 uM incubated for 120 mins by LC-MS/MS analysis. Particulars: Caco-2. A general note: Caco-2 monolayers are a common model of the intestinal barrier.
A short description of series [2]: Efflux ratio of apparent permeability from basolateral to apical side over apical to basolateral side in human Caco2 cells at 10 uM incubated for 120 mins by LC-MS/MS analysis. Particulars: Caco-2.
Series [3] is described as follows: Apparent permeability from basolateral to apical side in human Caco2 cells at 10 uM incubated for 120 mins by LC-MS/MS analysis. Particulars: Caco-2.
Series [4] relates to CWR22R. Description: Antiproliferative activity against human 22Rv1 cells after 96 hrs by propidium iodide staining based fluorescence 2D monolayer assay. It is filed as functional, cell-based. To be noted: 22Rv1, 96 h.
Series [5] deals with LNCaP. The series can be described thus: Antiproliferative activity against human LNCAP cells after 96 hrs by propidium iodide staining based fluorescence 2D monolayer assay. It is filed as functional, cell-based.
For series [6] the following is noted: 96 h.
Description: Solubility in RPMI1640 culture medium at <30 uM incubated for 4 days by microscopic analysis
For series [7] the following is noted: 33000 µM.
Description: Solubility in 100% DMSO at 33 mM at -20 degC
For another series, the target named is T1, Androgen receptor (Rattus norvegicus, UniProt P15207).
T1 sequence (P15207 whole entry): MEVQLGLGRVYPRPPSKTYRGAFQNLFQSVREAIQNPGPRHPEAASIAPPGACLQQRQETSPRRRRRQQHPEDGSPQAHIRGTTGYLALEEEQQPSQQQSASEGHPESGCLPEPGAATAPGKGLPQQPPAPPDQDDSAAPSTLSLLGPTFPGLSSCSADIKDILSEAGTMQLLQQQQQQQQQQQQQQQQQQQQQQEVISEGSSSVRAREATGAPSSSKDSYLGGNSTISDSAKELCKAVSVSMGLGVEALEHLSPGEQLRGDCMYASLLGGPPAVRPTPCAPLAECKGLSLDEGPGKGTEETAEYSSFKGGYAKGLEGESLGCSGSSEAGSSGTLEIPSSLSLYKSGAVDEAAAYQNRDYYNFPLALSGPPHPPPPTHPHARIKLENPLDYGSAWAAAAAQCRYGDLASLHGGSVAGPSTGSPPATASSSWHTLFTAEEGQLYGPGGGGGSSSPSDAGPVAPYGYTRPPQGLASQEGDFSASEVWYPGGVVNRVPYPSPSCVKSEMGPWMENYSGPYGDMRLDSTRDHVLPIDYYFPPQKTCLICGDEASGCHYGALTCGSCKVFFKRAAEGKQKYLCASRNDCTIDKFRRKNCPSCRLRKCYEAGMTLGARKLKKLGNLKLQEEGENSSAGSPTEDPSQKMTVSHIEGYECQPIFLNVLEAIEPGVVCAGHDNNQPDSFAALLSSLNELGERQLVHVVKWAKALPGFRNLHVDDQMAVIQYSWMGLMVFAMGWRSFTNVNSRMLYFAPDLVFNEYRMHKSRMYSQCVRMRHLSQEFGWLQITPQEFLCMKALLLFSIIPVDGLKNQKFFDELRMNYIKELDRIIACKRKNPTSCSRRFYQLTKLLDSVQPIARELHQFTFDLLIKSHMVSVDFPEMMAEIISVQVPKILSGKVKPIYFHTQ
The series can be described thus: (§1) Antagonist activity at rat androgen receptor fused with DNA-binding domain of GAL4 expressed in AR-UAS-bla GripTite 293 cells assessed as inhibition of R1881-induced receptor activation preincubated for 30 mins followed by R1881 addition measured after 16 to 24 hrs by betalactamase reporter gene assay. Type of series: cell-based. Background: In a reporter assay the amount or activity of a reporter protein is the signal.

Series [8] has as its target T2, Androgen receptor (Rattus norvegicus) (UniProt P15207).
T2 sequence (whole entry): T1 sequence (P15207 whole entry)
The series is described as §1. Type of series: cell-based.

The subject of series [9] is LNCaP. Description: Antiproliferative activity against human LNCAP cells assessed as relative inhibition after 96 hrs by propidium iodide staining based fluorescence 2D monolayer assay. Type of series: functional, cell-based.
Series [10] deals with DU-145. Description: Antiproliferative activity against human DU145 cells assessed as relative inhibition after 96 hrs by propidium iodide staining based fluorescence 2D monolayer assay. Type of series: functional, cell-based. To be noted: DU-145, 96 h.
Series [11] has as its system VCaP. Description: Antiproliferative activity against human VCaP cells assessed as relative inhibition after 96 hrs by propidium iodide staining based fluorescence 2D monolayer assay. It is filed as functional, cell-based.
Series [12] concerns CWR22R. Description: Antiproliferative activity against human 22Rv1 cells assessed as relative inhibition after 96 hrs by propidium iodide staining based fluorescence 2D monolayer assay. Particulars: 22Rv1, 96 h. Type of series: functional, cell-based.
Series [13] deals with VCaP. Description: Antiproliferative activity against human VCaP cells after 96 hrs by propidium iodide staining based fluorescence 2D monolayer assay. It is filed as functional, cell-based.
For series [14], the system named is DU-145. Description: Antiproliferative activity against human DU145 cells after 96 hrs by propidium iodide staining based fluorescence 2D monolayer assay. Type of series: functional, cell-based. Particulars: DU-145, 96 h.
The subject of another series is HepG2. The series can be described thus: Cytotoxicity against human HepG2 cells assessed as reduction in cell viability after 72 hrs by MTT assay. It is filed as functional, cell-based. To be noted: HepG2, 72 h; for minimal effective concentration: read-out: MEC. On the technique in general: Tetrazolium dyes change colour on reduction, which living cells bring about.

A further series is described as follows: in vitro. To be noted: human.
Series [15] in a line: Half life in human liver microsomes at 3 uM preincubated with compound followed by NADPH addition by LC-MS/MS analysis.

As for `CC(C)NCC(O)COc1cccc2ccccc12` (configuration not stated) [PROPRANOLOL], the Papp A→B at 2 h, 10 µM in series [1] was 40.3 ×10⁻⁶ cm/s. The efflux ratio at 2 h, 10 µM in series [2] turned out to be 1.03. For the same compound, in series [3], the Papp B→A at 2 h, 10 µM is 41.6 ×10⁻⁶ cm/s.

Turning to `O=C(Nc1ccc([N+](=O)[O-])c(C(F)(F)F)c1)C(O)(CSc1ccccc1C(F)(F)F)C(F)(F)F` (configuration not stated), the pIC50 in the series with CWR22R [4] is 5.89; in the series on LNCaP [5], 6.14; on Androgen receptor, 6.61; in the series on LNCaP [9] it was 6.08; in the series on DU-145 [10], 5.63; in the series on VCaP [11], 5.61. The figures for the pIC50 in the series on CWR22R [12], in the series with VCaP [13] and in the series on DU-145 [14] were 5.90, 5.56 and 5.62, respectively. The IC70 with CWR22R [4] came out at 1.7 µM; in the series on LNCaP [5], 1.2 µM; in the series with LNCaP [9], 1.33 µM; with DU-145 [10], 2.7 µM; with VCaP [11] it was 4.8 µM; in the series on CWR22R [12], 1.65 µM. The results for the IC70 with VCaP [13] and in the series with DU-145 [14] were 5.73 µM and 2.76 µM, respectively. Further, the solubility entry in [6] and in [7] was “Soluble” throughout. Besides, in series [8], the inhibition result was “Dose-dependent effect”.

For the compound `CC(O)(CSc1ccccc1OC(F)(F)F)C(=O)Nc1ccc([N+](=O)[O-])cc1C(F)(F)F` (configuration not stated), the pIC50 in the series with CWR22R [4] is 5.33; in the series on LNCaP [5], 5.48; in the series on LNCaP [9] it was 5.48; in the series on DU-145 [10] it was 5.21; in the series with VCaP [11], 5.33; in the series with CWR22R [12], 5.35. Besides, the results for the pIC50 in the series on VCaP [13] and in the series on DU-145 [14] were 5.28 and 5.18, respectively. For the same compound, the IC70 turned out to be 6.31 µM with CWR22R [4]; 3.61 µM in the series on LNCaP [5]; 3.55 µM in the series with LNCaP [9]; 7.59 µM in the series with DU-145 [10]; 9.39 µM with VCaP [11]; 5.88 µM with CWR22R [12]. The IC70 worked out at 13.8 µM with VCaP [13] and 8.16 µM in the series with DU-145 [14]. For the same compound, the solubility entry in [6] and in series [7] was “Soluble” each time.

`CC(O)(CSc1cccc(C(F)(F)F)c1)C(=O)Nc1ccc(C#N)c(C(F)(F)F)c1` (configuration not stated): the Papp A→B at 2 h, 10 µM in [1] was 3.92 ×10⁻⁶ cm/s. The negative logarithm of the IC50 (pIC50) in the series on CWR22R [4] is 5.25; with LNCaP [5], 5.30; with VCaP [13], 5.03; in the series with DU-145 [14] it was 4.98. Further, the solubility entry in series [6] and in series [7] was “Soluble” throughout. In addition, the AC50 in the series on HepG2 was determined as 36.6 µM. Further, the minimal effective concentration in the series on HepG2 was 18.4 µM. In [2], the efflux ratio at 2 h, 10 µM came out at 1.21. In addition, the Papp B→A at 2 h, 10 µM in [3] stood at 4.73 ×10⁻⁶ cm/s. This compound also returned a microsomal CLint at 3 µM in “in vitro” (microsomes) of 232 µL/min/mg. In addition, the half-life at 3 µM in [15] (microsomes) stood at 5.97 min.

For the compound `CC(O)(CSc1ccccc1C(F)(F)F)C(=O)Nc1ccc(C#N)c(C(F)(F)F)c1` (configuration not stated), the pIC50 in the series with CWR22R [4] was 5.30; in the series with LNCaP [5], 5.31; at Androgen receptor, 6.37; in the series on VCaP [13], 5.12; with DU-145 [14], 5.11. In addition, the inhibition result in series [8] is “Dose-dependent effect”. For the same compound, the AC50 with HepG2 came out at 25.8 µM. Further, the minimal effective concentration with HepG2 worked out at 14.7 µM. In “in vitro” (liver microsomes), this compound registered a microsomal CLint at 3 µM of 379 µL/min/mg. Moreover, the half-life at 3 µM in series [15] (liver microsomes) stood at 3.66 min.

Consider `C[C@](O)(CSc1cccc(C(F)(F)F)c1)C(=O)Nc1ccc(C#N)c(C(F)(F)F)c1`, for which the Papp A→B at 2 h, 10 µM in series [1] amounted to 6.84 ×10⁻⁶ cm/s. Moreover, the pIC50 in the series with CWR22R [4] was 4.88; with LNCaP [5] it was 4.84; in the series with VCaP [13], 5.05; in the series on DU-145 [14], 4.71. The solubility result in [6] and in series [7] was “Soluble” each time. In the series with HepG2, the AC50 was determined as 34.6 µM. Further, in the series on HepG2, the minimal effective concentration was found to be 26.6 µM. Besides, in [2], the efflux ratio at 2 h, 10 µM was determined as 1.78. Besides, the Papp B→A at 2 h, 10 µM in [3] was found to be 12.2 ×10⁻⁶ cm/s. Further, in “in vitro” (microsomes), the microsomal CLint at 3 µM came to 302 µL/min/mg. The half-life at 3 µM in series [15] (microsomes) is 4.59 min.
